The values that follow come from patent US20250011368A1, “DLL3 TARGETING PEPTIDES AND CONSTRUCTS THEREOF” (MARIANA ONCOLOGY INC., priority 2023, published 2025).

Each structure is given as a SMILES string. Numbered stars: 1 amine (or outer) side, 2 acyl side, 3 side chain; on linkers, the order of the positions; unused ones are H or OH. Bridge positions count the residues as written; N and C are the ends. Square brackets hold non-standard residues; d marks the D form. Side chains are listed from the residue outwards. Peptide text beside a SMILES is read from it. * marks the point of attachment. PEG24 = NCCOCCOCCOCCOCCOCCOCCOCCOCCOCCOCCOCCOCCOCCOCCOCCOCCOCCOCCOCCOCCOCCOCCOCCOCCC(=O)O; Ala(piperidin-4-yl) = O=C([C@H](CC1CCN([*:3])CC1)N[*:1])[*:2]; DOTA = O=C(O)CN1CCN(CC(=O)O)CCN(CC(=O)*)CCN(CC(=O)O)CC1; Trp(7-OMe) = COc1cccc2c(C[C@H](N)C(=O)O)c[nH]c12; Phe(4-CF3) = N[C@@H](Cc1ccc(C(F)(F)F)cc1)C(=O)O; Trp(5-F) = N[C@@H](Cc1c[nH]c2ccc(F)cc12)C(=O)O; Trp(7-aza) = N[C@@H](Cc1c[nH]c2ncccc12)C(=O)O; Pro(trans-4-F) = O=C(O)[C@@H]1C[C@@H](F)CN1; γGlu = O=C(O)[C@H](CCC(=O)[*:2])N[*:1]; 1Nal = N[C@@H](Cc1cccc2ccccc12)C(=O)O; 2Nal = N[C@@H](Cc1ccc2ccccc2c1)C(=O)O; Palmitoyl = CCCCCCCCCCCCCCCC(=O)*; X7 = C[C@@]1(C(=O)[*:2])CCN1[*:1]; αMeI = CC[C@H](C)[C@](C)(N)C(=O)O; Trx = NC[C@H]1CC[C@H](C(=O)O)CC1; Chg = N[C@H](C(=O)O)C1CCCCC1; Tle = CC(C)(C)[C@H](N)C(=O)O; Lauroyl = CCCCCCCCCCCC(=O)*; Aze = O=C(O)[C@@H]1CCN1; CH2 = C([*:1])[*:2]

In the assay the target is T1, human DLL3 (Homo sapiens, UniProt Q9NYJ7).
T1 sequence (Q9NYJ7 27-618): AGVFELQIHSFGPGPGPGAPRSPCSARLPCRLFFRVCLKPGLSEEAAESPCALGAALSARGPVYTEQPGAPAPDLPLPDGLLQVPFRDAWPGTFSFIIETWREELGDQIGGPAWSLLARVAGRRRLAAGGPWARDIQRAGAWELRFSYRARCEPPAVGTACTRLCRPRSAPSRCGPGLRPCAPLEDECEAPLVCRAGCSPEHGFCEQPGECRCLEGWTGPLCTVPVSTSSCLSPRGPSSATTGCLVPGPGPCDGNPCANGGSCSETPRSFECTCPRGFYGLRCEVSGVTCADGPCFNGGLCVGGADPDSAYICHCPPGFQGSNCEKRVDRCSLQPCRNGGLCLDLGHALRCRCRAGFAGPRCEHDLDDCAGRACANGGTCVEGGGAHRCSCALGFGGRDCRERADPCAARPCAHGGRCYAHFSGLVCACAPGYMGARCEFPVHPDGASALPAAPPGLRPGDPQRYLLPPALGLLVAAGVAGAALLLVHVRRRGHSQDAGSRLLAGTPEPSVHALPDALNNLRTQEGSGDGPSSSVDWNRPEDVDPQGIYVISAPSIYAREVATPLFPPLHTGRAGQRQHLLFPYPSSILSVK
Nature of the assay: Affinity determination by Surface Plasmon Resonance (SPR). Format: binding. To be noted: 25° C., biotinylated human DLL3 immobilized on streptavidin sensor chip, 1:1 binding model; read-out: SPR KD. In a few lines: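 Biotinylated human DLL3 was captured on a streptavidin chip with a reference surface. Compounds at several concentrations were injected at 100 μL/minute in phosphate buffer (137 mM NaCl, 2.7 mM KCl, 0.05% P20, 2% DMSO). Affinity and kinetics came from 1:1 model fits of the sensorgrams.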
Turning to `CCCCCCCCCCCCCCCC(=O)N[C@@H](CCC(=O)NCCOCCOCCOCCOCCOCCOCCOCCOCCOCCOCCOCCOCCOCCOCCOCCOCCOCCOCCOCCOCCOCCOCCOCCOCCC(=O)NCCCC[C@@H]1NC(=O)[C@H](Cc2ccc3ccccc3c2)NC(=O)[C@H](CC(N)=O)NC(=O)[C@H](CC2CCNCC2)NC(=O)[C@@H](NC(=O)[C@@H](NC(=O)[C@@H](NC(=O)[C@H](Cc2c[nH]c3ccccc23)NC(C)=O)[C@@H](C)O)C2CCCCC2)CSSC[C@@H](C(=O)N[C@@H](Cc2c[nH]c3ccccc23)C(=O)N2CCC[C@H]2C(=O)N[C@H](CCCCNC(=O)CN2CCN(CC(=O)O)CCN(CC(=O)O)CCN(CC(=O)O)CC2)C(N)=O)NC(=O)[C@H](CC(=O)O)NC1=O)C(=O)O` [compound 426, Ac-WT-(Chg)-C(3)-[3-(4-piperidinyl)-Ala]-N-(2Nal)-Lys(PEG24-[gE(C16)]-OH)-D-C(3)-W-P-[D-Lys(DOTA)]-NH2] (Ac-WT[Chg]C[Ala(piperidin-4-yl)]N[2Nal]K([PEG24-γGlu-Palmitoyl])DCWP[dK](DOTA)-NH2; disulfide 4-10), the Kd – broadly, the constant that tells how readily two partners part at equilibrium – is 1 to 10 nM.

On to `CC(=O)N[C@@H](Cc1c[nH]c2ccc(F)cc12)C(=O)N[C@H](C(=O)N[C@H](C(=O)N[C@H]1CSSC[C@@H](C(=O)N[C@@H](Cc2c[nH]c3ncccc23)C(=O)N2CC[C@H]2C(=O)N[C@H](CCCCNC(=O)CN2CCN(CC(=O)O)CCN(CC(=O)O)CCN(CC(=O)O)CC2)C(N)=O)NC(=O)[C@H](CC(=O)O)NC(=O)[C@H](Cc2cnc[nH]2)NC(=O)[C@H](Cc2ccc(C(F)(F)F)cc2)NC(=O)[C@H](CC(N)=O)NC(=O)[C@H](CC(N)=O)NC1=O)C(C)(C)C)[C@@H](C)O` [compound 137, Ac-(5Fluoro-W)-T-(Tbg)-C(3)-N-N-(4CF3-F)-H-D-C(3)-(7Aza-W)-(Aze)-[D-Lys(DOTA)]-NH2] (Ac-[Trp(5-F)]T[Tle]CNN[Phe(4-CF3)]HDC[Trp(7-aza)][Aze][dK](DOTA)-NH2; disulfide 4-10), for which the Kd fell in the range of 1 to 10 nM.

Consider `CC[C@H](C)[C@H](NC(=O)[C@@H](NC(=O)[C@H](Cc1c[nH]c2ccccc12)NC(C)=O)[C@@H](C)O)C(=O)N[C@H]1CSSC[C@@H](C(=O)N[C@@H](Cc2c[nH]c3c(OC)cccc23)C(=O)N2CCC[C@H]2C(=O)N[C@H](CCCCNC(=O)CN2CCN(CC(=O)O)CCN(CC(=O)O)CCN(CC(=O)O)CC2)C(N)=O)NC(=O)[C@H](CC(=O)O)NC(=O)[C@H](Cc2cnc[nH]2)NC(=O)[C@H](Cc2c[nH]c3ccccc23)NC(=O)[C@H](CC(N)=O)NC(=O)[C@H](CC(N)=O)NC1=O` [compound 299, Ac-W-T-I-C(3)-N-N-W-H-D-C(3)-(7-MeO-W)-P-[D-Lys(DOTA)]-NH2] (Ac-WTICNNWHDC[Trp(7-OMe)]P[dK](DOTA)-NH2; disulfide 4-10), for which the equilibrium dissociation constant (Kd) is less than 1 nM.

For `CC[C@H](C)[C@](C)(NC(=O)[C@@H](NC(=O)[C@H](Cc1c[nH]c2ccccc12)NC(C)=O)[C@@H](C)O)C(=O)N[C@H]1CSSC[C@@H](C(=O)N[C@@H](Cc2c[nH]c3ccccc23)C(=O)N2CCC[C@H]2C(=O)N[C@H](CCCCNC(=O)CN2CCN(CC(=O)O)CCN(CC(=O)O)CCN(CC(=O)O)CC2)C(N)=O)NC(=O)[C@H](CC(=O)O)NC(=O)[C@H](Cc2cnc[nH]2)NC(=O)[C@H](Cc2c[nH]c3ccccc23)NC(=O)[C@H](CC(N)=O)NC(=O)[C@H](CC(N)=O)NC1=O` [compound 409, Ac-W-T-(aMe-I)-C(3)-N-N-W-H-D-C(3)-W-P-[D-Lys(DOTA)]-NH2] (Ac-WT[αMeI]CNNWHDCWP[dK](DOTA)-NH2; disulfide 4-10), the Kd was in the range of 10 to 100 nM.

`CC[C@H](C)[C@H](NC(=O)[C@@H](NC(=O)[C@H](Cc1c[nH]c2ccccc12)NC(C)=O)[C@@H](C)O)C(=O)N[C@H]1CSSC[C@@H](C(=O)N[C@@H](Cc2c[nH]c3ccccc23)C(=O)N2CCC[C@H]2C(=O)NC[C@H]2CC[C@H](C(=O)NC[C@H]3CC[C@H](C(=O)N[C@H](CCCCNC(=O)CN4CCN(CC(=O)O)CCN(CC(=O)O)CCN(CC(=O)O)CC4)C(N)=O)CC3)CC2)NC(=O)[C@H](CC(=O)O)NC(=O)[C@H](Cc2cnc[nH]2)NC(=O)[C@H](Cc2ccc3ccccc3c2)NC(=O)[C@H](CC(N)=O)NC(=O)[C@H](CC(N)=O)NC1=O` [compound 373, Ac-W-T-I-C(3)-N-N-(2Nal)-H-D-C(3)-W-P-(Cyx)2-[D-Lys(DOTA)]-NH2] (Ac-WTICNN[2Nal]HDCWP[Trx][Trx][dK](DOTA)-NH2; disulfide 4-10): the Kd is less than 1 nM.

With `CC(=O)N[C@@H](Cc1c[nH]c2ccccc12)C(=O)N[C@H](C(=O)N[C@@H](Cc1cccc2ccccc12)C(=O)N[C@H]1CSSC[C@@H](C(=O)N[C@@H](Cc2c[nH]c3ccccc23)C(=O)N2CCC[C@H]2C(=O)N[C@H](CCCCNC(=O)CN2CCN(CC(=O)O)CCN(CC(=O)O)CCN(CC(=O)O)CC2)C(N)=O)NC(=O)[C@H](CC(=O)O)NC(=O)[C@H](Cc2c[nH]cn2)NC(=O)[C@H](Cc2c[nH]c3ccccc23)NC(=O)[C@H](CC(N)=O)NC(=O)[C@H](CC(N)=O)NC1=O)[C@@H](C)O` [compound 107, Ac-W-T-(1Nal)-C(3)-N-N-W-H-D-C(3)-W-P-[D-Lys(DOTA)]-NH2] (Ac-WT[1Nal]CNNWHDCWP[dK](DOTA)-NH2; disulfide 4-10), the equilibrium dissociation constant (Kd) was in the range of 10 to 100 nM.

Turning to `CC[C@H](C)[C@H](NC(=O)[C@@H](NC(=O)[C@H](Cc1c[nH]c2ccccc12)NC(C)=O)[C@@H](C)O)C(=O)N[C@H]1CSSC[C@@H](C(=O)N[C@@H](Cc2c[nH]c3ccccc23)C(=O)N2C[C@H](F)C[C@H]2C(=O)N[C@H](CCCCNC(=O)CN2CCN(CC(=O)O)CCN(CC(=O)O)CCN(CC(=O)O)CC2)C(N)=O)NC(=O)[C@H](CC(=O)O)NC(=O)[C@H](Cc2c[nH]cn2)NC(=O)[C@H](Cc2c[nH]c3ccccc23)NC(=O)[C@H](CC(N)=O)NC(=O)[C@H](CC(N)=O)NC1=O` [compound 113, Ac-W-T-I-C(3)-N-N-W-H-D-C(3)-W-(trans4Fluoro-P)-[D-Lys(DOTA)]-NH2] (Ac-WTICNNWHDCW[Pro(trans-4-F)][dK](DOTA)-NH2; disulfide 4-10), the dissociation constant Kd was less than 1 nM.

With `CC(=O)N[C@@H](Cc1c[nH]c2ccccc12)C(=O)N[C@H](C(=O)N[C@H](C(=O)N[C@H]1CSSC[C@@H](C(=O)N[C@@H](Cc2c[nH]c3ccccc23)C(=O)N2CCC[C@H]2C(=O)N[C@H](CCCCNC(=O)CN2CCN(CC(=O)O)CCN(CC(=O)O)CCN(CC(=O)O)CC2)C(N)=O)NC(=O)[C@H]([C@@H](C)O)NC(=O)[C@H](Cc2cnc[nH]2)NC(=O)[C@H](Cc2ccc3ccccc3c2)NC(=O)[C@H](CC(N)=O)NC(=O)[C@H](CC2CCNCC2)NC1=O)C1CCCCC1)[C@@H](C)O` [compound 285, Ac-W-T-(Chg)-C(3)-[3-(4-piperidinyl)-Ala]-N-(2Nal)-H-(Thr)-C(3)-W-P-[D-Lys(DOTA)]-NH2] (Ac-WT[Chg]C[Ala(piperidin-4-yl)]N[2Nal]HTCWP[dK](DOTA)-NH2; disulfide 4-10), the Kd is less than 1 nM.

Consider `CCCCCCCCCCCC(=O)NCCCC[C@@H]1NC(=O)[C@H](Cc2ccc3ccccc3c2)NC(=O)[C@H](CC(N)=O)NC(=O)[C@H](CC(N)=O)NC(=O)[C@@H](NC(=O)[C@@H](NC(=O)[C@@H](NC(=O)[C@H](Cc2c[nH]c3ccccc23)NC(C)=O)[C@@H](C)O)[C@@H](C)CC)CSSC[C@@H](C(=O)N[C@@H](Cc2c[nH]c3ccccc23)C(=O)N2CCC[C@H]2C(=O)N[C@H](CCCCNC(=O)CC[C@H](NC(=O)CC[C@H](NC(=O)CC[C@H](NC(=O)CN2CCN(CC(=O)O)CCN(CC(=O)O)CCN(CC(=O)O)CC2)C(=O)O)C(=O)O)C(=O)O)C(N)=O)NC(=O)[C@H](CC(=O)O)NC1=O` [compound 368, Ac-W-T-I-C(3)-N-N-(2Nal)-K(C12)-D-C(3)-W-P-[D-Lys(gE-gE-gE-DOTA)]-NH2] (Ac-WTICNN[2Nal]K(Lauroyl)DCWP[dK]([γGlu-γGlu-γGlu-DOTA])-NH2; disulfide 4-10), for which the Kd is 1 to 10 nM.

With `CC[C@H](C)[C@H](NC(=O)[C@@H](NC(=O)[C@H](Cc1c[nH]c2ccccc12)NC(C)=O)[C@@H](C)O)C(=O)N[C@H]1CSCSC[C@@H](C(=O)N[C@@H](Cc2c[nH]c3ccccc23)C(=O)N2CCC[C@H]2C(=O)N[C@H](CCCCNC(=O)CN2CCN(CC(=O)O)CCN(CC(=O)O)CCN(CC(=O)O)CC2)C(N)=O)NC(=O)[C@H](CC(=O)O)NC(=O)[C@H](Cc2cnc[nH]2)NC(=O)[C@H](Cc2c[nH]c3ccccc23)NC(=O)[C@H](CC(N)=O)NC(=O)[C@H](CC(N)=O)NC1=O` [compound 164, Ac-WTI-C(1)-NNWHD-C(1)-WP-[D-Lys(DOTA)]-NH2] (Ac-WTICNNWHDCWP[dK](DOTA)-NH2; linker 4-10 via CH2), the Kd was 1 to 10 nM.

With `CC[C@H](C)[C@H](NC(=O)[C@@H](NC(=O)[C@H](Cc1c[nH]c2ccccc12)NC(C)=O)[C@@H](C)O)C(=O)N[C@H]1CSSC[C@@H](C(=O)N[C@@H](Cc2c[nH]c3ccccc23)C(=O)N2CC[C@@]2(C)C(=O)N[C@H](CCCCNC(=O)CN2CCN(CC(=O)O)CCN(CC(=O)O)CCN(CC(=O)O)CC2)C(N)=O)NC(=O)[C@H](CC(=O)O)NC(=O)[C@H](Cc2c[nH]cn2)NC(=O)[C@H](Cc2ccc3ccccc3c2)NC(=O)[C@H](CC(N)=O)NC(=O)[C@H](CC(N)=O)NC1=O` [compound 360, Ac-W-T-I-C(3)-N-N-(2Nal)-H-D-C(3)-W-aMe-Aze-[D-Lys(DOTA)]-NH2] (Ac-WTICNN[2Nal]HDCW[X7][dK](DOTA)-NH2; disulfide 4-10), the Kd was less than 1 nM.
